Laboratory results: patent US20050222234A1, “Mucin production inhibitor” (TAIHO PHARMACEUTICAL CO., LTD., priority 2004, published 2005)

Columns and labels:
NCI-H292 cells = assay: Mucin production inhibitory action (EGF-stimulated, mucin ELISA of culture supernatant); assay type: cell-based, human; details: for Effect on production of mucin (in words): 1-10 μM, EGF-stimulated NCI-H292 cells
Protocol: Mucin Production Inhibitory Action
The test was carried out in accordance with a partially modified method of Takeyama et al. (Proc. Natl. Acad. Sci. USA, Vol. 96, P. 3081-3086, 1999). The specific procedure will be described as follows. NCI-H292 cells, which are human respiratory tract epithelial cell lines, were suspended in a 10% FCS-containing RPMI 1640-culture medium, and disseminated to a 12-well culture plate so that the cell concentration of each well was adjusted to 2×10^5 cell/well, followed by culturing for two days. Subsequently, the culture medium was changed to a 0.2% FCS-containing RPMI culture medium, followed by culturing for another two days. The thus-cultured cells were employed in the test. Each test drug and EGF (25 ng/mL) were added to each well, and the mucin level of the supernatant of the culture 48 hours after initiation of culturing was determined through the ELISA method. Percent inhibition (%) with regard to control value was calculated by supposing the difference produced by subtracting normal value from control value to be 100%. In this case, the control value is defined as the mucin amount in the culture supernatant to which only EGF was added, while the normal value is defined as the muchin amount in the culture supernatant containing neither of test drug and EGF. In addition, cilomilast (J. Pharmacol. Exp. Ther., Vol. 284, p. 420-426, 1998) and roflumilast (J. Pharmacol. Exp. Ther., Vol. 297, p. 267-279, 2001), which are typical phosphodiesterase (IV) inhibitors were also tested in a similar manner.

Lewis Wistar rats = assay: Inhibitory effect on hyperplasia of goblet cells in the respiratory tract epithelium (Sephadex-induced, PAS staining); assay type: in vivo, rat; details: oral, once per day for seven days; Sephadex i.v.; ratio of PAS-positive area
Protocol: (Welch test), the value in each parenthesis represents percent inhibition (%)
The test was carried out in accordance with a partially modified method of Matsubara et al. (Int. Arch. Allergy Immunol., Vol. 116, p. 67-75, 1998). The specific procedure will be described as follows. To each of the 7-week old male Lewis Wistar rats, a Sephadex suspension (0.1. mg/mL/head) was intravenously administered (total three times: day 0, 2, and 5). Two days after the final administration, the rat was slaughtered by exsanguination under anesthetic with pentobarbital. The lung-tissue was extirpated from the rat and immersed in a neutral formalin buffer for fixation. […] The ratio of the PAS-stained positive area to the respiratory tract epithelium was calculated by use of an image analysis software (Winroof). Each test compound was suspended in 0.5% hydroxypropylmethyl cellulose (HPMC), and the suspension-was orally administered once per day for continuous seven days from the start of administration of Sephadex. In the Figure, numerical data are represented by mean value±standard deviation (each group: 11-12 samples).

Structure (SMILES): COc1ccc([C@]2(C#N)CC[C@@H](C(=O)O)CC2)cc1OC1CCCC1 [Cilomilast, cilomilast, reference compound]
- Effect on production of mucin (in words) (NCI-H292 cells): promoted production of mucin

Structure (SMILES): COc1ccc(-c2nc3cc(-n4cncn4)ccc3[nH]2)cc1OCC1CC1 [Compound 1]
- Effect on hyperplasia of goblet cells (in words, FIG. 1) (Lewis Wistar rats): inhibitory effect

Structure (SMILES): CCC(CC)Oc1cc(-c2nc3cc(-n4cncn4)ccc3[nH]2)ccc1OC [Compound 5]
- inhibition at 1 µM (NCI-H292 cells; Homo sapiens, NCI-H292, 1 μM test drug, EGF 25 ng/mL, supernatant after 48 hours, read-out: Percent inhibition of mucin production (%)): 15.4%
- inhibition at 3 µM (NCI-H292 cells; Homo sapiens, NCI-H292, 3 μM test drug, EGF 25 ng/mL, supernatant after 48 hours, read-out: Percent inhibition of mucin production (%)): 40.2%
- inhibition at 10 µM (NCI-H292 cells; Homo sapiens, NCI-H292, 10 μM test drug, EGF 25 ng/mL, supernatant after 48 hours, read-out: Percent inhibition of mucin production (%)): 65.9%

Structure (SMILES): O=C(Nc1c(Cl)cncc1Cl)c1ccc(OC(F)F)c(OCC2CC2)c1 [Roflumilast, roflumilast, reference compound]
- Effect on production of mucin (in words) (NCI-H292 cells): promoted production of mucin
